Laboratory results published in ChEMBL document CHEMBL4665622, “Repurposing ibuprofen to control Staphylococcus aureus biofilms” (2019).
Converted amounts (≈) assume the structure as drawn. The source made the active and inactive calls. The rule behind the calls is not given here.

What was measured:
Staphylococcus aureus [1] = test: Bactericidal activity against Staphylococcus aureus CECT 976 incubated for 24 hrs by broth microdilution method; format: functional
Staphylococcus aureus [2] = test: Antibiofilm activity against Staphylococcus aureus XU212 preform-matured biofilm assessed as increase in biofilm removal at MIC incubated upto 24 hrs relative to control; format: functional; settings: time hrs <=24
Staphylococcus aureus [3] = test: Antibiofilm activity against Staphylococcus aureus CECT 976 preform-matured biofilm assessed as reduction in CFU at MIC incubated for 24 hrs; format: functional, organism-based
Cell membrane [4] = test: Effect on surface tension of Staphylococcus aureus CECT 976 assessed as Lewis acid-base at 0.25 times of MIC incubated for 1 hr (reference value: 10.5 +/- 1.3 mJ/m2); format: subcellular
Staphylococcus aureus [5] = test: Inhibition of cell adhesion in Staphylococcus aureus CECT 976 assessed as decrease in CFU at 5 times of MIC incubated upto 24 hrs relative to control; format: functional; settings: time hrs <=24
Cell membrane [6] = test: Disruption of cytoplasmic membrane integrity in Staphylococcus aureus CECT 976 assessed as potassium ion release at 0.5 times of MIC incubated for 1 hr by flame emission and atomic absorption spectroscopy (reference value: 0 mg/L); format: subcellular
Staphylococcus aureus [7] = test: Antibacterial activity against Staphylococcus aureus assessed as reduction in bacterial growth incubated for 24 hrs by broth microdilution method; format: functional
Staphylococcus aureus [8] = test: Antibacterial activity against Staphylococcus aureus CECT 976 assessed as reduction in bacterial growth incubated for 24 hrs by broth microdilution method; format: functional
Staphylococcus aureus [9] = test: Antibiofilm activity against Staphylococcus aureus CECT 976 preform-matured biofilm assessed as increase in biofilm removal at MIC incubated for 6 hrs relative to control; format: functional
Cell membrane [10] = test: Effect on surface tension of Staphylococcus aureus CECT 976 assessed as hydrophobicity at MIC incubated for 1 hr (reference value: 34.8 +/- 1.3 mJ/m2); format: subcellular
Staphylococcus aureus [11] = test: Antibiofilm activity against Staphylococcus aureus RN4220 preform-matured biofilm assessed as reduction in CFU per cm2 at 5 times of MIC incubated upto 24 hrs; format: functional; settings: time hrs <=24
Staphylococcus aureus [12] = test: Bactericidal activity against Staphylococcus aureus SA1199B assessed as reduction in bacterial growth incubated for 24 hrs by broth microdilution method; format: functional
Staphylococcus aureus [13] = test: Antibacterial activity against Staphylococcus aureus RN4220 assessed as reduction in bacterial growth incubated for 24 hrs by broth microdilution method; format: functional
Cell membrane [14] = test: Effect on surface tension of Staphylococcus aureus CECT 976 assessed as electron donor component at 0.25 times of MIC incubated for 1 hr (reference value: 55 +/- 0.9 mJ/m2); format: subcellular
Staphylococcus aureus [15] = test: Antibiofilm activity against Staphylococcus aureus CECT 976 preform-matured biofilm assessed as increase in biofilm removal at 10 times of MIC incubated for 6 hrs relative to control; format: functional
Cell membrane [16] = test: Effect on surface tension of Staphylococcus aureus CECT 976 assessed as Lifshitz-van der Waals at 0.5 times of MIC incubated for 1 hr (reference value: 40.5 +/- 0.0 mJ/m2); format: subcellular
Cell membrane [17] = test: Effect on surface tension of Staphylococcus aureus CECT 976 assessed as Lewis acid-base at 0.5 times of MIC incubated for 1 hr (reference value: 10.5 +/- 1.3 mJ/m2); format: subcellular
Cell membrane [18] = test: Effect on surface tension of Staphylococcus aureus CECT 976 assessed as electron acceptor component at MIC incubated for 1 hr (reference value: 0.5 +/- 0.1 mJ/m2); format: subcellular
Staphylococcus aureus [19] = test: Antibiofilm activity against Staphylococcus aureus CECT 976 preform-matured biofilm assessed as increase in biofilm inactivation at upto 10 times of MIC incubated upto 24 hrs relative to control; format: functional; settings: time hrs <=24
Cell membrane [20] = test: Effect on surface tension of Staphylococcus aureus CECT 976 assessed as electron donor component at MIC incubated for 1 hr (reference value: 55 +/- 0.9 mJ/m2); format: subcellular
Staphylococcus aureus [21] = test: Antibiofilm activity against Staphylococcus aureus RN4220 preform-matured biofilm assessed as reduction in CFU per cm2 at 10 times of MIC incubated upto 24 hrs; format: functional; settings: time hrs <=24
Escherichia coli = test: Inhibition of biofilm formation in Escherichia coli incubated for 24 hrs by crystal violet staining based assay relative to control; format: functional
Streptococcus pneumoniae = test: Inhibition of biofilm formation in Streptococcus pneumoniae incubated for 24 hrs by crystal violet staining based assay relative to control; format: functional
Cell membrane [22] = test: Effect on surface tension of Staphylococcus aureus CECT 976 assessed as electron acceptor component at 0.5 times of MIC incubated for 1 hr (reference value: 0.5 +/- 0.1 mJ/m2); format: subcellular
Staphylococcus aureus [23] = test: Antibiofilm activity against Staphylococcus aureus XU212 preform-matured biofilm assessed as reduction in CFU upto 10 times of MIC incubated upto 24 hrs relative to control; format: functional; parameters: scale not given: the % may be the effect or the level left; settings: time hrs <=24
Staphylococcus aureus [24] = test: Antibiofilm activity against Staphylococcus aureus CECT 976 preform-matured biofilm assessed as reduction in CFU per cm2 at MIC incubated for 6 hrs; format: functional
Cell membrane [25] = test: Disruption of cytoplasmic membrane integrity in Staphylococcus aureus CECT 976 assessed as potassium ion release at 0.25 times of MIC incubated for 1 hr by flame emission and atomic absorption spectroscopy (reference value: 0 mg/L); format: subcellular
Staphylococcus aureus [26] = test: Antibiofilm activity against Staphylococcus aureus SA1199B preform-matured biofilm assessed as increase in biofilm inactivation upto 10 times of MIC incubated upto 24 hrs relative to control; format: functional; settings: time hrs <=24
Staphylococcus aureus [27] = test: Antibiofilm activity against Staphylococcus aureus CECT 976 preform-matured biofilm assessed as increase in biofilm removal at 5 times of MIC incubated for 6 hrs relative to control; format: functional
Cell membrane [28] = test: Effect on surface tension of Staphylococcus aureus CECT 976 assessed as Lifshitz-van der Waals at 0.25 times of MIC incubated for 1 hr (reference value: 40.5 +/- 0.0 mJ/m2); format: subcellular
Cell membrane [29] = test: Disruption of cytoplasmic membrane integrity in Staphylococcus aureus CECT 976 assessed as potassium ion release at MBC incubated for 1 hr by flame emission and atomic absorption spectroscopy (reference value: 0 mg/L); format: subcellular

CC(C)Cc1ccc(C(C)C(=O)O)cc1 (stereo unspecified) [IBUPROFEN]
MBC (Staphylococcus aureus [1]): 1400 µg/mL (≈ 6.79 mM) | Activity (Staphylococcus aureus [2]): <=14% | inhibition (Staphylococcus aureus [3]): Active | Activity (Cell membrane [4]): 11.7 mJ/m2 | inhibition (INH) (Staphylococcus aureus [5]): 100% | Activity (Cell membrane [6]): 0.51 mg/L | MIC (Staphylococcus aureus [7]): 1250 µg/mL (≈ 6.06 mM) | MIC (Staphylococcus aureus [8]): 500 µg/mL (≈ 2.42 mM) | inhibition (INH) (Staphylococcus aureus [9]): 42% | Activity (Cell membrane [10]): 30.1 mJ/m2 | Activity (Staphylococcus aureus [11]): 1.8 log10CFU | MBC (Staphylococcus aureus [12]): 1600 µg/mL (≈ 7.76 mM) | MIC (Staphylococcus aureus [13]): 2000 µg/mL (≈ 9.7 mM) | Activity (Cell membrane [14]): 48.8 mJ/m2 | inhibition (INH) (Staphylococcus aureus [15]): 39% | Activity (Cell membrane [16]): 37.3 mJ/m2 | Activity (Cell membrane [17]): 13.8 mJ/m2 | Activity (Cell membrane [18]): 1.7 mJ/m2 | inhibition (INH) (Staphylococcus aureus [19]): <=80% | Activity (Cell membrane [20]): 50 mJ/m2 | Activity (Staphylococcus aureus [21]): 2.5 log10CFU | inhibition (INH) (Escherichia coli): 37% | inhibition (INH) (Streptococcus pneumoniae): 37% | Activity (Cell membrane [22]): 1.1 mJ/m2 | Activity (Staphylococcus aureus [23]): 100% | Activity (Staphylococcus aureus [24]): 0.8 log10CFU | Activity (Cell membrane [25]): 0.51 mg/L | Activity (Staphylococcus aureus [26]): <=55% | inhibition (INH) (Staphylococcus aureus [27]): 42% | Activity (Cell membrane [28]): 39.5 mJ/m2 | Activity (Cell membrane [29]): 0.54 mg/L
